Columns and labels:
[1] = test system: Chemotherapeutic agent-caused constipation models of Balb/c mice; experiment: Examples 272-342 (Table 5): oral CDK inhibitor, relief of constipation caused by a chemotherapeutic agent; format: in vivo;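 further: percent of treated mice relieved versus chemotherapy group by feces reduction rate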
How it was run: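 Balb/c mice, 10 per group: control, chemotherapeutic agent alone, or intragastric CDK inhibitor followed by the chemotherapeutic agent. Feces produced within 3 hours were recorded daily, and feces reduction rate (%) was calculated relative to the control group.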

[2] = test system: diarrhea caused by the continuous administration of a chemotherapeutic agent in Balb/c mice; experiment: Examples 444-469 (Table 9): oral CDK inhibitor, diarrhea caused by continuous administration of a chemotherapeutic agent; format: in vivo
Source text: Balb/c mice were fed for 1 week, and then divided into groups. The experiment was divided into a control group, a chemotherapeutic agent group, and a CDK inhibitor group, each of which comprised 10 mice, to perform the administration experiment, for which the administration dosage, mode, time and frequency were shown in Table 9. The control group: being intragastrically administered with the same solvent as that used in the CDK inhibitor group (the time was shown in Table 9), and then being injected/intragastrically administered with the same solvent as that used in the chemotherapeutic agent group (the administration mode was shown in Table 9): the chemotherapeutic agent group: being intragastrically administered with the same solvent as that used in the CDK inhibitor group (the time was shown in Table 9), and then being injected/intragastrically administered with the chemotherapeutic agent (the type, administration mode, dosage and duration time were shown in Table 9): the CDK inhibitor group: being intragastrically administered with the CDK inhibitor (the time was shown in Table 9), and then being administered with the chemotherapeutic agent (the type, administration mode, dosage and duration time were shown in Table 9).
The scoring of diarrhea can refer to the method of Akinobu Kurita (Cancer Chemother Pharmacol 2000: 46:211-20.), Grade 0: normal feces: Grade 1: mild diarrhea, the stools is slightly wet and soft: Grade 2: moderate diarrhea, loose stools and mild perianal contamination: Grade 3: severe diarrhea, watery stools and accompanied by severe perianal staining (see FIG. 1). It is regarded as effective remission when the diarrhea grading of mice in the CDK inhibitor group is reduced compared with the average diarrhea grading of mice in the chemotherapeutic agent group.
The diarrhea grading of mice was observed and recorded every day. At the end of the experiment, the number of mice in the CDK inhibitor group whose diarrhea grading was lower than that of mice in the chemotherapeutic agent group was recorded. Table 9 lists various animal experiment combinations of chemotherapeutic agents and CDK inhibitors, as well as the corresponding experimental results. (Relative remission rate %=the number of mice in the CDK inhibitor group whose diarrhea has been effectively relieved/the total number of mice in the CDK inhibitor group*100%. The establishment rate of diarrhea model in the chemotherapeutic agent group was 50%-80%, that is, about 5-8 of 10 mice developed diarrhea during the experiment, and there were cases of individual mice death or not developing diarrhea.)

[3] = continuous administration of fluorouracil and capecitabine for 7 days or above
[4] = continuous administration of fluorouracil for less than 7 days

**Q.** CCN1CCN(Cc2ccc(Nc3ncc(F)c(-c4cc(F)c5nc(C)n(C(C)C)c5c4)n3)nc2)CC1 [Abemaciclib] was tested. Which Relative remission rate ([1]; Example 295, Fluorouracil (5-Fu) intramuscular injection 200 mg/kg single, CDK inhibitor oral 100 mg/kg single, 22 h before, cycle 7 days) did it give?
**A.** The Relative remission rate was 60%.

**Q.** And the Relative remission rate ([1]; Example 296, Oxaliplatin intraperitoneal injection 20 mg/kg single, CDK inhibitor oral 100 mg/kg single, 0.5 h before, cycle 8 days)?
**A.** The Relative remission rate was 50%.

**Q.** What about the Relative remission rate ([1]; Example 297, Oxaliplatin intraperitoneal injection 20 mg/kg single, CDK inhibitor oral 100 mg/kg single, 4 h before, cycle 8 days) of the same compound?
**A.** The Relative remission rate was 40%.

**Q.** And the Relative remission rate ([1]; Example 298, Oxaliplatin intraperitoneal injection 20 mg/kg single, CDK inhibitor oral 100 mg/kg single, 8 h before, cycle 8 days)?
**A.** The Relative remission rate was 60%.

**Q.** What about the Relative remission rate ([1]; Example 299, Oxaliplatin intraperitoneal injection 20 mg/kg single, CDK inhibitor oral 100 mg/kg single, 12 h before, cycle 8 days) of the same compound?
**A.** The Relative remission rate was 60%.

**Q.** And the Relative remission rate ([1]; Example 300, Oxaliplatin intraperitoneal injection 20 mg/kg single, CDK inhibitor oral 100 mg/kg single, 24 h before, cycle 8 days)?
**A.** The Relative remission rate was 40%.

**Q.** And the Relative remission rate ([1]; Example 301, Oxaliplatin intraperitoneal injection 20 mg/kg single, CDK inhibitor oral 100 mg/kg single, 48 h before, cycle 8 days)?
**A.** Its Relative remission rate is 0%.

**Q.** And the Relative remission rate ([1]; Example 312, Irinotecan (CPT-11) intravenous injection 260 mg/kg single, CDK inhibitor oral 150 mg/kg single, 14 h before, cycle 7 days)?
**A.** The Relative remission rate was 50%.

**Q.** What about the Relative remission rate ([1]; Example 324, Gemcitabine and paclitaxel intraperitoneal injection 60 (G) 10 (P) mg/kg single, CDK inhibitor oral 150 mg/kg single, 24 h before, cycle 8 days) of the same compound?
**A.** The Relative remission rate was 60%.

**Q.** And the Relative remission rate ([1]; Example 342, Methotrexate (MTX) intraperitoneal injection 300 mg/kg single, CDK inhibitor oral 150 mg/kg single, 8 h before, cycle 7 days)?
**A.** Its Relative remission rate is 30%.

**Q.** And the Relative remission rate ([2]; Example 457, Fluorouracil (5-Fu) oral administration 50 mg/kg once a day, for 14 days, CDK inhibitor oral 150 mg/kg once a day, for 14 days, 8 h before, cycle 14 days)?
**A.** Its Relative remission rate is 0%.

**Q.** Which results are given for CN(C)C(=O)c1cc2cnc(Nc3ccc(N4CCNCC4)cn3)nc2n1C1CCCC1 [Ribociclib]?
**A.** Relative remission rate ([1]; Example 294, Fluorouracil (5-Fu) intravenous injection 225 mg/kg single, CDK inhibitor oral 150 mg/kg single, 0.5 h before, cycle 7 days): 50%; Relative remission rate ([1]; Example 302, Oxaliplatin intravenous injection 20 mg/kg single, CDK inhibitor oral 150 mg/kg single, 1 h before, cycle 8 days): 50%; Relative remission rate ([1]; Example 310, Irinotecan (CPT-11) oral administration 300 mg/kg single, CDK inhibitor oral 100 mg/kg single, 20 h before, cycle 11 days): 50%; Relative remission rate ([1]; Example 325, Gemcitabine and paclitaxel intravenous injection 60 (G) 10 (P) mg/kg single, CDK inhibitor oral 125 mg/kg single, 0.5 h before, cycle 8 days): 50%; Relative remission rate ([1]; Example 336, Methotrexate (MTX) intravenous injection 300 mg/kg single, CDK inhibitor oral 125 mg/kg single, 0.5 h before, cycle 7 days): 40%; Relative remission rate ([1]; Example 337, Methotrexate (MTX) intravenous injection 300 mg/kg single, CDK inhibitor oral 125 mg/kg single, 4 h before, cycle 7 days): 40%; Relative remission rate ([1]; Example 338, Methotrexate (MTX) intravenous injection 300 mg/kg single, CDK inhibitor oral 125 mg/kg single, 8 h before, cycle 7 days): 50%; Relative remission rate ([1]; Example 339, Methotrexate (MTX) intravenous injection 300 mg/kg single, CDK inhibitor oral 125 mg/kg single, 12 h before, cycle 7 days): 30%; Relative remission rate ([1]; Example 340, Methotrexate (MTX) intravenous injection 300 mg/kg single, CDK inhibitor oral 125 mg/kg single, 24 h before, cycle 7 days): 60%; Relative remission rate ([1]; Example 341, Methotrexate (MTX) intravenous injection 300 mg/kg single, CDK inhibitor oral 125 mg/kg single, 48 h before, cycle 7 days): 0%; Relative remission rate ([2]; Example 456, Fluorouracil (5-Fu) intravenous injection 70 mg/kg once a day, for 3 days, CDK inhibitor oral 200 mg/kg once a day, for 3 days, 4 h before, cycle 8 days): 80%; relieving effect on diarrhea [2, 3]: not significant; relieving effect on diarrhea [2, 4]: significant relieving effects

**Q.** Which results are given for CN1CCN(c2ccc(Nc3ncc4cc5n(c4n3)C3(CCCCC3)CNC5=O)nc2)CC1 [Trilaciclib (G1T28), Trilaciclib]?
**A.** Relative remission rate ([1]; Example 272, Fluorouracil (5-Fu) intraperitoneal injection 175 mg/kg single, CDK inhibitor oral 100 mg/kg single, 0.5 h before, cycle 7 days): 50%; Relative remission rate ([1]; Example 273, Fluorouracil (5-Fu) intraperitoneal injection 175 mg/kg single, CDK inhibitor oral 100 mg/kg single, 1 h before, cycle 7 days): 50%; Relative remission rate ([1]; Example 274, Fluorouracil (5-Fu) intraperitoneal injection 175 mg/kg single, CDK inhibitor oral 100 mg/kg single, 2 h before, cycle 7 days): 50%; Relative remission rate ([1]; Example 275, Fluorouracil (5-Fu) intraperitoneal injection 175 mg/kg single, CDK inhibitor oral 100 mg/kg single, 3 h before, cycle 7 days): 40%; Relative remission rate ([1]; Example 276, Fluorouracil (5-Fu) intraperitoneal injection 175 mg/kg single, CDK inhibitor oral 100 mg/kg single, 4 h before, cycle 7 days): 60%; Relative remission rate ([1]; Example 277, Fluorouracil (5-Fu) intraperitoneal injection 175 mg/kg single, CDK inhibitor oral 100 mg/kg single, 5 h before, cycle 7 days): 40%; Relative remission rate ([1]; Example 278, Fluorouracil (5-Fu) intraperitoneal injection 175 mg/kg single, CDK inhibitor oral 100 mg/kg single, 6 h before, cycle 7 days): 60%; Relative remission rate ([1]; Example 279, Fluorouracil (5-Fu) intraperitoneal injection 175 mg/kg single, CDK inhibitor oral 100 mg/kg single, 7 h before, cycle 7 days): 70%; Relative remission rate ([1]; Example 280, Fluorouracil (5-Fu) intraperitoneal injection 175 mg/kg single, CDK inhibitor oral 100 mg/kg single, 8 h before, cycle 7 days): 70%; Relative remission rate ([1]; Example 281, Fluorouracil (5-Fu) intraperitoneal injection 175 mg/kg single, CDK inhibitor oral 100 mg/kg single, 9 h before, cycle 7 days): 60%; Relative remission rate ([1]; Example 282, Fluorouracil (5-Fu) intraperitoneal injection 175 mg/kg single, CDK inhibitor oral 100 mg/kg single, 10 h before, cycle 7 days): 60%; Relative remission rate ([1]; Example 283, Fluorouracil (5-Fu) intraperitoneal injection 175 mg/kg single, CDK inhibitor oral 100 mg/kg single, 11 h before, cycle 7 days): 50%; Relative remission rate ([1]; Example 284, Fluorouracil (5-Fu) intraperitoneal injection 175 mg/kg single, CDK inhibitor oral 100 mg/kg single, 12 h before, cycle 7 days): 70%; Relative remission rate ([1]; Example 285, Fluorouracil (5-Fu) intraperitoneal injection 175 mg/kg single, CDK inhibitor oral 100 mg/kg single, 13 h before, cycle 7 days): 40%; Relative remission rate ([1]; Example 286, Fluorouracil (5-Fu) intraperitoneal injection 175 mg/kg single, CDK inhibitor oral 100 mg/kg single, 14 h before, cycle 7 days): 60%; Relative remission rate ([1]; Example 287, Fluorouracil (5-Fu) intraperitoneal injection 175 mg/kg single, CDK inhibitor oral 100 mg/kg single, 16 h before, cycle 7 days): 50%; Relative remission rate ([1]; Example 288, Fluorouracil (5-Fu) intraperitoneal injection 175 mg/kg single, CDK inhibitor oral 100 mg/kg single, 18 h before, cycle 7 days): 60%; Relative remission rate ([1]; Example 289, Fluorouracil (5-Fu) intraperitoneal injection 175 mg/kg single, CDK inhibitor oral 100 mg/kg single, 20 h before, cycle 7 days): 50%; Relative remission rate ([1]; Example 290, Fluorouracil (5-Fu) intraperitoneal injection 175 mg/kg single, CDK inhibitor oral 100 mg/kg single, 22 h before, cycle 7 days): 30%; Relative remission rate ([1]; Example 291, Fluorouracil (5-Fu) intraperitoneal injection 175 mg/kg single, CDK inhibitor oral 100 mg/kg single, 24 h before, cycle 7 days): 30%; Relative remission rate ([1]; Example 292, Fluorouracil (5-Fu) intraperitoneal injection 175 mg/kg single, CDK inhibitor oral 100 mg/kg single, 48 h before, cycle 7 days): 0%; Relative remission rate ([1]; Example 303, Fluorouracil and oxaliplatin intraperitoneal injection 100 (F) 10 (O) mg/kg single, CDK inhibitor oral 100 mg/kg single, 24 h before, cycle 10 days): 40%; Relative remission rate ([1]; Example 311, Irinotecan (CPT-11) intramuscular injection 260 mg/kg single, CDK inhibitor oral 50 mg/kg single, 1 h before, cycle 7 days): 60%; Relative remission rate ([1]; Example 314, Fluorouracil and oxaliplatin and irinotecan intraperitoneal injection 70 (F) 5 (O) 100 (I) mg/kg single, CDK inhibitor oral 180 mg/kg single, 12 h before, cycle 10 days): 60%; Relative remission rate ([1]; Example 323, Docetaxel (DTX) intravenous injection 10 mg/kg single, CDK inhibitor oral 100 mg/kg single, 9 h before, cycle 8 days): 60%; Relative remission rate ([1]; Example 327, Cytarabine (Ara-C) intraperitoneal injection 600 mg/kg single, CDK inhibitor oral 100 mg/kg single, 0.5 h before, cycle 8 days): 80%; Relative remission rate ([1]; Example 328, Cytarabine (Ara-C) intraperitoneal injection 600 mg/kg single, CDK inhibitor oral 100 mg/kg single, 4 h before, cycle 8 days): 60%; Relative remission rate ([1]; Example 329, Cytarabine (Ara-C) intraperitoneal injection 600 mg/kg single, CDK inhibitor oral 100 mg/kg single, 8 h before, cycle 8 days): 40%; Relative remission rate ([1]; Example 330, Cytarabine (Ara-C) intraperitoneal injection 600 mg/kg single, CDK inhibitor oral 100 mg/kg single, 12 h before, cycle 8 days): 40%; Relative remission rate ([1]; Example 331, Cytarabine (Ara-C) intraperitoneal injection 600 mg/kg single, CDK inhibitor oral 100 mg/kg single, 24 h before, cycle 8 days): 40%; Relative remission rate ([1]; Example 332, Cytarabine (Ara-C) intraperitoneal injection 600 mg/kg single, CDK inhibitor oral 100 mg/kg single, 48 h before, cycle 8 days): 0%; Relative remission rate ([2]; Examples 452-455 (one value given; 2 h, 4 h, 6 h, 8 h before), Fluorouracil (5-Fu) intraperitoneal injection 70 mg/kg once a day, for 7 days, CDK inhibitor oral 125 mg/kg once a day, for 7 days, cycle 10 days): 10%; Relative remission rate ([2]; Examples 458-461 (one value given; 2 h, 4 h, 6 h, 8 h before), Capecitabine oral administration 1000 mg/kg (printed 100/0 wrapped) once a day, for 5 days, CDK inhibitor oral 100 mg/kg once a day, for 5 days, cycle 14 days): 50%; relieving effect on diarrhea [2, 3]: not significant; relieving effect on diarrhea [2, 4]: significant relieving effects
